Test results from ChEMBL document CHEMBL3039007, “Structure-based identification of OATP1B1/3 inhibitors” (Mol Pharmacol, 2013).
pIC50, pKi: −log10 of the molar value.

Tests used:
[1] = molecular target: T1, Solute carrier organic anion transporter family member 1B1 (Homo sapiens, UniProt Q9Y6L6)
T1 sequence (Q9Y6L6 whole entry): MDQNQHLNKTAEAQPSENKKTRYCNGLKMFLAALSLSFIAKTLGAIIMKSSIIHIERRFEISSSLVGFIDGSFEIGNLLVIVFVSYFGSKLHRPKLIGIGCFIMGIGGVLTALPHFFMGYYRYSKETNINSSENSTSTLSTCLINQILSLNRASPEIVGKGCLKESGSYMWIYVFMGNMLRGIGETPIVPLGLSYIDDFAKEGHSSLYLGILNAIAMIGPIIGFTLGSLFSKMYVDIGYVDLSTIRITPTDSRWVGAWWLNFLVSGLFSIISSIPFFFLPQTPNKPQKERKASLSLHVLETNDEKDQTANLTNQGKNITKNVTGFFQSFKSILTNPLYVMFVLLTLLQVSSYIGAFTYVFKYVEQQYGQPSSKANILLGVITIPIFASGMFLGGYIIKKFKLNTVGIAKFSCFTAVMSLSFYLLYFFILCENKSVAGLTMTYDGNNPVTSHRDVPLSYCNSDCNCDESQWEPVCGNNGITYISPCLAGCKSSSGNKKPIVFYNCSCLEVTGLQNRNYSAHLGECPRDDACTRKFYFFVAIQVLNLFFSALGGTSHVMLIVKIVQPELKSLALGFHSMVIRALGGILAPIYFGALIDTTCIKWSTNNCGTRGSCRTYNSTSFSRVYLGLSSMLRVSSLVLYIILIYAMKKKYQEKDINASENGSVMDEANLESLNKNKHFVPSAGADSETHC

[2] = molecular target: T1, Solute carrier organic anion transporter family member 1B1; conditions: chinese hamster, cho, 10 µM
[3] = molecular target: T2, Solute carrier organic anion transporter family member 1B3 (Homo sapiens, UniProt Q9NPD5); conditions: chinese hamster, cho, 10 µM
T2 sequence (Q9NPD5 whole entry): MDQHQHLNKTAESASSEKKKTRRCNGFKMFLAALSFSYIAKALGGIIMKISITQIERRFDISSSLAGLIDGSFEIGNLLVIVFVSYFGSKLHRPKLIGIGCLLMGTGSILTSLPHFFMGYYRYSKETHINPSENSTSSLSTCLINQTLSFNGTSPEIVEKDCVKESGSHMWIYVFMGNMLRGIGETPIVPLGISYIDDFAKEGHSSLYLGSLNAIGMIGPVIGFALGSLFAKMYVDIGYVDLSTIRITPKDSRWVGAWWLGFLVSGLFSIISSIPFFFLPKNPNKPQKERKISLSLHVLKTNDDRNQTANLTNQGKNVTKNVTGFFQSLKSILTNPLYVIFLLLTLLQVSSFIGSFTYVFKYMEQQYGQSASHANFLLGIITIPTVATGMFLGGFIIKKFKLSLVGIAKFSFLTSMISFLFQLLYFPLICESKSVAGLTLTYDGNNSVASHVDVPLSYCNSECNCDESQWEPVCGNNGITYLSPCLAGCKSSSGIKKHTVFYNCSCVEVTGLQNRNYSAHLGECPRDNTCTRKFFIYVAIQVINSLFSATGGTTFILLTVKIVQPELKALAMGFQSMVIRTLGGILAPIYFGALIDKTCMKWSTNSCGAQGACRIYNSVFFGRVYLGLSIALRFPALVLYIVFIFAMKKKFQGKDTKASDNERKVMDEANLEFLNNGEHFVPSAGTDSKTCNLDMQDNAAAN

[4] = molecular target: T2, Solute carrier organic anion transporter family member 1B3
[5] = molecular target: T2, Solute carrier organic anion transporter family member 1B3; remark: listed apart in the source
[6] = molecular target: T1, Solute carrier organic anion transporter family member 1B1; remark: listed apart in the source

SMILES | pKi [1] | residual activity [2] [%] | residual activity [3] [%] | pIC50 [4] | pKi [5] | pIC50 [6]
CCC(=O)O[C@H]1[C@H](O[C@@H]2[C@@H](C)[C@H](O[C@H]3C[C@@](C)(OC)[C@@H](O)[C@H](C)O3)[C@@H](C)C(=O)O[C@H](CC)[C@@](C)(O)[C@H](O)[C@@H](C)C(=O)[C@H](C)C[C@@]2(C)O)O[C@H](C)C[C@@H]1N(C)C.CCCCCCCCCCCCOS(=O)(=O)O [ERYTHROMYCIN ESTOLATE] | 5.62 | 6.903 | 7.433 | 5.51 | 5.63 | 5.36
CCOC(=O)CCC(=O)O[C@H]1[C@H](O[C@@H]2[C@@H](C)[C@H](O[C@H]3C[C@@](C)(OC)[C@@H](O)[C@H](C)O3)[C@@H](C)C(=O)O[C@H](CC)[C@@](C)(O)[C@H](O)[C@@H](C)C(=O)[C@H](C)C[C@@]2(C)O)O[C@H](C)C[C@@H]1N(C)C [ERYTHROMYCIN ETHYLSUCCINATE] | 5.78 | 3.592 | 30.5 | 5.68 | 5.79 | 5.52
COC(=O)c1c(OC)cc2c(c1C)Oc1c(Cl)c(O)c(Cl)c(C)c1C(=O)O2 [GANGALEOIDIN] | 7.22 | 4.093 | 15.01 | 5.58 | 5.69 | 6.99
CC(C)=CCCC1(C)C=Cc2c(O)c3c(c(CC=C(C)C)c2O1)OC12C(=CCCC1C(C)(C)O[C@@]2(C/C=C(\C)C(=O)O)C(=O)O)C3=O (stereo partly specified) [GARCINOLIC ACID] | 6.19 | 30.6 | 3.626 | 5.65 | 5.76 | 5.93
O=c1c(-c2ccc(O)cc2)coc2cc(O)cc(O)c12 [GENISTEIN] | 5.30 | 95.56 | 39.06 | 5.41 | 5.53 | 5.04
CC(=O)OC/C=C(C)/C=C/C=C(C)/C=C/C1=C(C)CCCC1(C)C [GILRETINOL ACETATE] | 5.91 | 19.44 | 23.53 | 5.30 | 5.41 | 5.65
CC1(C)CC[C@]2(C(=O)O)CC[C@]3(C)C(=CC[C@@H]4[C@@]5(C)CC[C@H](O)[C@@](C)(CO)[C@@H]5CC[C@]43C)[C@@H]2C1 [HEDERAGENIN] | 5.68 | 40.18 | 18.59 | 6.05 | 6.17 | 5.42
O=C(O)c1cc2ccccc2c(Cc2c(O)c(C(=O)O)cc3ccccc23)c1O.OCCOCCN1CCN(C(c2ccccc2)c2ccc(Cl)cc2)CC1 [HYDROXYZINE PAMOATE] | 6.35 | 12.16 | 13.57 | 5.91 | 6.03 | 6.09
CC[C@@H](C(=O)[C@@H](C)[C@@H](O)[C@H](C)CCc1ccc(C)c(O)c1C(=O)[O-])[C@H]1O[C@](CC)([C@H]2CC[C@](O)(CC)[C@H](C)O2)C[C@@H]1C.[Na+] [LASALOCID A SODIUM] | 6.59 | 10.29 | 6.678 | 6.11 | 6.23 | 6.32
COC(=O)c1c(C)c2c(c(C)c1O)OC(=O)c1c(C)c(Cl)c(O)c(Cl)c1O2 [LEOIDIN] | 7.10 | 7.804 | 14.63 | 5.62 | 5.74 | 6.84
CCCCCc1c2c(cc(O)c1C(=O)O)OC(=O)c1c(cc(OC)cc1C(=O)CCCC)O2 [LOBARIC ACID] | 6.40 | 18.31 | 7.572 | 5.79 | 5.90 | 6.14
C=C1[C@@H]2CC[C@@]3(C)[C@H](c4ccoc4)OC(=O)C[C@]13O[C@H]1CC(=O)C(C)(C)[C@H](C(OC(C)=O)C(=O)OC)[C@]12C (stereo partly specified) [METHYL 6-ACETOXYANGOLENSATE] | 6.10 | 11.95 | 34.99 | 5.42 | 5.53 | 5.84
CCCCCCCCCc1ccc(OCCOCCOCCOCCOCCOCCOCCOCCOCCO)cc1 [NONOXYNOL 9] | 5.72 | 32.74 | 27.96 | 5.43 | 5.54 | 5.46
Cc1cc(O)c(C=O)c2c1C(=O)Oc1c(C)c(O)c3c(c1O2)C(O)OC3=O (stereo unspecified) [NORSTICTIC ACID] | 6.20 | 10.9 | 1.823 | 6.26 | 6.38 | 5.94
CCCc1nc(C(C)(C)O)c(C(=O)OCc2oc(=O)oc2C)n1Cc1ccc(-c2ccccc2-c2nnn[nH]2)cc1 [OLMESARTAN MEDOXOMIL] | 6.27 | 15.39 | 9.702 | 6.01 | 6.12 | 6.01
C=C1[C@@H]([C@@]2(C)[C@@H](OC(C)=O)CC(=O)O[C@](C)(COC(C)=O)[C@@H]2C(=O)OC)[C@@H](OC=O)[C@H](OC(=O)[C@H](O)[C@H](C)CC)[C@@]2(C)[C@H](c3ccoc3)CC(=O)[C@]12O [PRIEURIANIN] | 5.89 | 22.79 | 25.49 | 5.47 | 5.58 | 5.63
C[C@H]1CC[C@@]2(OC1)O[C@H]1C[C@H]3[C@@H]4CC[C@@H]5C[C@@H](O)CC[C@]5(C)[C@H]4CC[C@]3(C)[C@H]1[C@@H]2C [SARSASAPOGENIN] | 6.89 | 50.78 | 25.69 | 6.98 | 7.10 | 6.61
COc1c(CC=C(C)C)c2c(c3oc(=O)c(-c4ccc(O)cc4)c(O)c13)C=CC(C)(C)O2 [SCANDENIN] | 6.23 | 13.79 | 9.001 | 6.13 | 6.25 | 5.97
COc1cc(C2Oc3cc([C@H]4Oc5cc(O)cc(O)c5C(=O)[C@@H]4O)ccc3OC2CO)ccc1O (stereo partly specified) [SILIBININ] | 5.47 | 54.77 | 46.89 | 5.37 | 5.49 | 5.21
O=C(OC[C@H]1O[C@@H](OC(=O)c2cc(O)c(O)c(OC(=O)c3cc(O)c(O)c(O)c3)c2)[C@H](OC(=O)c2cc(O)c(O)c(OC(=O)c3cc(O)c(O)c(O)c3)c2)[C@@H](OC(=O)c2cc(O)c(O)c(OC(=O)c3cc(O)c(O)c(O)c3)c2)[C@@H]1OC(=O)c1cc(O)c(O)c(OC(=O)c2cc(O)c(O)c(O)c2)c1)c1cc(O)c(O)c(OC(=O)c2cc(O)c(O)c(O)c2)c1 [TANNIC ACID] | 5.84 | 18.66 | 10.59 | 5.38 | 5.49 | 5.58
CCC(C)C(=O)O[C@@H]1C[C@@]2(C)[C@H](c3ccoc3)OC(=O)CC23OC2(C)O[C@]14[C@]1(C)[C@@H](CC(=O)OC)C5(C)CC1(O)[C@](O)(C5OC(=O)C1(C)OC1C)[C@@H](OC(C)=O)[C@]34O2 (stereo partly specified) [UTILIN] | 6.42 | -3.778 | 2.658 | 6.11 | 6.22 | 6.17
